We go through one compound from patent US10604554B2, “Double-acylated GLP-1 derivatives” (Novo Nordisk A/S, priority 2012, dated 2020).

The assay deals with T1, human GLP-1 receptor (Homo sapiens, UniProt P43220).
T1 construct: expressed in transfected cells; host or cells: BHK cells, clone FCW467-12A/KZ10-1 (parent line BHKTS13), further transfected with CRE luciferase
Nature of the assay: In vitro potency (CRE luciferase; whole cells). It counts as cell-based. More on the design: EC50/pM (ratio 1% HSA/0% HSA): unit not given here. How it is done:
The purpose of this example is to test the activity, or potency, of the GLP-1 derivatives in vitro. The in vitro potency is the measure of human GLP-1 receptor activation in a whole cell assay.
In vitro potency was determined by measuring the response of human GLP-1 receptor in a reporter gene assay. The assay was performed in a stably transfected BHK cell line that expresses the human GLP-1 receptor and contains the DNA for the cAMP response element (CRE) coupled to a promoter and the gene for firefly luciferase (CRE luciferase). When the human GLP-1 receptor was activated it results in the production of cAMP, which in turn results in the luciferase protein being expressed. When assay incubation was completed the luciferase substrate (luciferin) was added and the enzyme converts luciferin to oxyluciferin and produces bioluminescence. The luminescence was measured and was the readout for the assay.
An increase of the in vitro potency, EC50 value, in the presence of serum albumin indicates an affinity to serum albumin and represents a method to predict a protracted pharmacokinetic profile of the test substance in animal models.
The cells were cultured at 5% CO2 in cell culture medium. They were aliquoted and stored in liquid nitrogen. Before each assay an aliquot was taken up and washed twice in PBS before being suspended at the desired concentration in the assay specific buffer.
The following chemicals were used in the assay: Pluronic F-68 (10%) (Gibco 2404), human serum albumin (HSA) (Sigma A9511), ovalbumin (Sigma A5503), DMEM w/o phenol red (Gibco 11880-028), 1 M Hepes (Gibco 15630), Glutamax 100× (Gibco 35050) and steadylite plus (PerkinElmer 6016757).
1) Cell stocks were thawed in a 37° C. water bath.
2) Cells were washed three times in PBS.
3) The cells were counted and adjusted to 5×10^3 cells/50 μl (1×10^5 cells/ml) in assay medium. A 50 μl aliquot of cells was transferred to each well in the assay plate.
4) Stocks of the test compounds and reference compounds were diluted to a concentration of 0.2 μM in 0% assay buffer for the 0% HSA CRE luciferase assay and 1% assay buffer for the HSA CRE luciferase assay. […] 5) A 50 μl aliquot of compound or blank was transferred in triplicate from the dilution plate to the assay plate. […] 7) The assay plate was removed from the incubator and allowed to stand at room temperature for 15 min. 8) A 100 μl aliquot of steadylite plus reagent was added to each well of the assay plate (reagent was light sensitive). 9) Each assay plate was covered with aluminum foil to protect it from light and shaken for 30 min at room temperature. 10) Each assay plate was read in a Packard TopCount NXT instrument. Calculations and Results
The data from the TopCount instrument were transferred to GraphPad Prism software. The software averages the values for each replicate and performs a non-linear regression.

T1 sequence (P43220 24-463): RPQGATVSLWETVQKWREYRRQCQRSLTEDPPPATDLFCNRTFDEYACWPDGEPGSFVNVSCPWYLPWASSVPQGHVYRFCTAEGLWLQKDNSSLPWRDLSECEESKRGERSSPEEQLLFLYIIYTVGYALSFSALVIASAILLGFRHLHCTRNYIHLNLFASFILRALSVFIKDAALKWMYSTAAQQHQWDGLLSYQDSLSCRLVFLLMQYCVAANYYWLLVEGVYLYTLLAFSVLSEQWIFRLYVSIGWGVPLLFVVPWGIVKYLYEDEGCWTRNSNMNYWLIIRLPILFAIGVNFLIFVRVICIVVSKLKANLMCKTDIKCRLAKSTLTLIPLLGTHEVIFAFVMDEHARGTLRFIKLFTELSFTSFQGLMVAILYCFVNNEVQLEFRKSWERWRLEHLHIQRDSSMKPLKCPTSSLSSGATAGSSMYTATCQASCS

One may read the EC50 as the midpoint of the concentration-response curve. For `CC[C@H](C)[C@H](NC(=O)[C@H](Cc1ccccc1)NC(=O)[C@H](CCC(=O)O)NC(=O)[C@H](CCCCNC(=O)[C@@H](N)CCCCNC(=O)[C@@H](N)CCCCNC(=O)CC[C@H](NC(=O)CCCCCCCCCCCCC(=O)O)C(=O)O)NC(=O)[C@H](C)NC(=O)[C@H](C)NC(=O)[C@H](CCC(N)=O)NC(=O)CNC(=O)[C@H](CCC(=O)O)NC(=O)[C@H](CC(C)C)NC(=O)[C@H](Cc1ccc(O)cc1)NC(=O)[C@H](CO)NC(=O)[C@H](CO)NC(=O)[C@@H](NC(=O)[C@H](CC(=O)O)NC(=O)[C@H](CO)NC(=O)[C@@H](NC(=O)[C@H](Cc1ccccc1)NC(=O)[C@@H](NC(=O)CNC(=O)[C@H](CCC(=O)O)NC(=O)C(C)(C)NC(=O)[C@@H](N)Cc1c[nH]cn1)[C@@H](C)O)[C@@H](C)O)C(C)C)C(=O)N[C@@H](C)C(=O)N[C@@H](Cc1c[nH]c2ccccc12)C(=O)N[C@@H](CC(C)C)C(=O)N[C@H](C(=O)N[C@@H](Cc1c[nH]cn1)C(=O)NCC(=O)N[C@@H](CCCNC(=N)N)C(=O)N[C@@H](CCCCNC(=O)[C@@H](N)CCCCNC(=O)[C@@H](N)CCCCNC(=O)CC[C@H](NC(=O)CCCCCCCCCCCCC(=O)O)C(=O)O)C(=O)O)C(C)C` [Example 3, N^ε26-[(2S)-2-amino-6-[[(2S)-2-amino-6-[[(4S)-4-carboxy-4-(13-carboxytridecanoylamino)butanoyl]amino]hexanoyl]amino]hexanoyl], N^ε37-[(2S)-2-amino-6-[[(2S)-2-amino-6-[[(4S)-4-carboxy-4-(13-carboxytridecanoylamino)butanoyl]amino]hexanoyl]amino]hexanoyl]-[Aib^8,His^34,Lys^37]-GLP-1-(7-37)-peptide], under “In vitro potency (CRE luciferase) EC50 (1% HSA), BHK cells, 1% HSA”, the EC50 came out at 0.08 nM. Also, the “EC50/pM (ratio 1% HSA/0% HSA)” value (ratio of EC50 at 1% HSA to EC50 at 0% HSA) is on record as 10.3.
